Test results as given in US20250186474A1 (CHINA CHEMICAL & PHARMACEUTICAL CO., LTD., priority 2023, published 2025).

How the values were obtained:
[1] = Solubility / precipitation in the pharmaceutical solution composition; type: physicochemical; conditions: drug prepared with 20 mg/ml
[2] = Stress test of compositions with different EIDD-1931 concentrations (60° C., 7 and 14 days); type: physicochemical; conditions: API
Experimental: Therefore, the concentration of EIDD-1931 was adjusted, and another stress test was conducted to evaluate how the resulting drugs degrade in 7 and 14 days.

O=c1nc(NO)ccn1[C@@H]1O[C@H](CO)[C@@H](O)[C@H]1O [EIDD-1931, β-D-N4-hydroxycytidine]
precipitation [1]: had precipitation issues
Single-impurity percentage [2]: 0.01/0.01%
total-impurity percentage [2]: 0.01/0.01%
Theoretical value ([2]; impurity test): 93.25%
